Assay [1] has as its target T1, APOL1 G2 (Homo sapiens, UniProt O14791, DEL388-389).
T1 construct: expressed in transfected cells; host or cells: HEK293/T-REx APOL1 G2 clone #2, doxycycline-inducible
T1 sequence (O14791 with tags, fused parts or gaps DEL388-389): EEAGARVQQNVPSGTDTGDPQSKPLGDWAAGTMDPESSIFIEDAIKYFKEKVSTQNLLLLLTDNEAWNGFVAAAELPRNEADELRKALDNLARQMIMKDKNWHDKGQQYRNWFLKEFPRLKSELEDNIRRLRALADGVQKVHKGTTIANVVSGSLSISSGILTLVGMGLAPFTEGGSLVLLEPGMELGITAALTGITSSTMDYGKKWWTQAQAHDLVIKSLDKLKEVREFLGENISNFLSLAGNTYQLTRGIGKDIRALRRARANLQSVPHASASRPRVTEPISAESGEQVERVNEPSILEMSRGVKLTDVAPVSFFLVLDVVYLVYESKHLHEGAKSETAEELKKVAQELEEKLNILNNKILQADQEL
The assay is described as follows: APOL1 G2 HEK293 rescue of cell death caused by overexpression of APOL1 (CellTiter-Glo). Type of assay: cell-based. As to conditions: HEK293/T-REx APOL1 G2 clone #2, doxycycline induction, 17 hours, CellTiter-Glo luminescence; reversal of cell death; geometric mean of at least 2 assay runs. The essentials: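 Viability read by CellTiter-Glo luminescence after 17 h, 37 °C, in HEK293/T-REx cells expressing APOL1 G2 on 6 ng/mL doxycycline, 5,000 cells/well. Compounds tested as duplicate 8-point, 3-fold dilutions, 0.5% DMSO final; four-parameter logistic EC50, usually geometric mean of ≥2 days.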

Assay [2] deals with T1, APOL1 G2. The assay can be described thus: APOL1 G2 FLIPR calcium influx assay (HEK T-REx/GCaMP6f/APOL1 G2 K6.3 cells). Type of assay: cell-based. The note with it: HEK293 clone expressing GCaMP6f, doxycycline-induced APOL1 G2; prevention of calcium influx; geometric mean of at least 2 assay runs. The essentials:
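Cells express GCaMP6f stably and APOL1 G2 after a 6 h doxycycline induction. Duplicate 8-point dilutions sit 10 min at room temperature in Ca2+-free Tyrode's (pH 7.4), then Ca2+ is injected to 5 mM final and the FLIPR signal recorded. AC50s are geometric means across ≥2 days.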

EC50 and AC50 data for 22 compounds are collected here from patent publication US20260055083A1, “APOL1 INHIBITORS AND METHODS OF USE” (Maze Therapeutics, Inc., priority 2022, published 2026).

SMILES strings stand for the structures.

The EC50 is the concentration that produces a half-maximal response. Broadly, the AC50 is the midpoint of the concentration-response curve, whichever way the signal moves. With `C[C@@H]1C[C@H](COc2ccc(S(=O)(=O)CCO)cc2)CN1C1CCc2ccc(Cl)cc2C1` (single isomer, unassigned) [Compound 63, 2-(4-{[(3S,5R)-1-[(2S or 2R)-7-chloro-1,2,3,4-tetrahydronaphthalen-2-yl]-5-methylpyrrolidin-3-yl]methoxy}benzenesulfonyl)ethan-1-ol], the concentration giving a half-maximal response (EC50) on APOL1 G2 [1] amounted to 24.8 nM. Further, the AC50 at APOL1 G2 [2] came to 188 nM.

For the compound `Cc1cc(OC[C@@H]2CN(CCc3cccc(C#N)c3)C[C@H]2C)ccc1S(C)(=O)=O` [Compound 83, 3-{2-[(3S,4S)-3-[(4-methanesulfonyl-3-methylphenoxy)methyl]-4-methylpyrrolidin-1-yl]ethyl}benzonitrile], the EC50 at APOL1 G2 [1] came to 94.3 nM. Also, the AC50 at APOL1 G2 [2] worked out at 94.6 nM.

`C[C@@H]1C[C@H](COc2ccc(S(=O)(=O)CCS(C)(=O)=O)cc2)CN1C1CCc2ccc(C#N)cc2C1` (single isomer, unassigned) [Compound 33, 7S or 7R)-7-[(2R,4S)-4-{[4-(2-methanesulfonylethanesulfonyl)phenoxy]methyl}-2-methylpyrrolidin-1-yl]-5,6,7,8-tetrahydronaphthalene-2-carbonitrile]: at APOL1 G2 [1], the EC50 was determined as 133 nM. For the same compound, the AC50 on APOL1 G2 [2] was 662 nM.

`CS(=O)(=O)c1ccc(OC[C@@H]2CN(C(CO)Cc3cccc(Cl)c3)CCN2)cc1` (single isomer, unassigned) [Compound 118, (2R or 2S)-3-(3-chlorophenyl)-2-[(3S)-3-[(4-methanesulfonylphenoxy)methyl]piperazin-1-yl]propan-1-ol]: at APOL1 G2 [1], the EC50 is above 10000 nM. The AC50 on APOL1 G2 [2] was found to be 1250 nM.

For the compound `Cc1cc(OC[C@H]2C[C@@H](C)N(CC(O)c3cccc(C#N)c3)C2)cnc1S(C)(=O)=O` (single isomer, unassigned) [Compound 95, 3-[(1R or 1S)-1-hydroxy-2-[(2R,4S)-4-{[(6-methanesulfonyl-5-methylpyridin-3-yl)oxy]methyl}-2-methylpyrrolidin-1-yl]ethyl]benzonitrile], at APOL1 G2 [1], the EC50 was found to be 1140 nM. Besides, the concentration at half-maximal activity (AC50) on APOL1 G2 [2] was found to be 1040 nM.

With `C[C@@H]1C[C@H](COc2ccc(S(=O)(=O)CCCS(C)(=O)=O)cc2)CN1C1CCc2c(C#N)cc(Cl)cc2C1` (single isomer, unassigned) [Compound 44, (6R or 6S)-3-chloro-6-[(2R,4S)-4-{[4-(3-methanesulfonylpropanesulfonyl)phenoxy]methyl}-2-methylpyrrolidin-1-yl]-5,6,7,8-tetrahydronaphthalene-1-carbonitrile], the EC50 on APOL1 G2 [1] worked out at 312 nM. The AC50 at APOL1 G2 [2] was 1380 nM.

For the compound `C[C@@H]1C[C@H](COc2ccc(S(C)(=O)=O)nn2)CN1CCc1cccc(C#N)c1` [Compound 26, 3-{2-[(2R,4S)-4-{[(6-methanesulfonylpyridazin-3-yl)oxy]methyl}-2-methylpyrrolidin-1-yl]ethyl}benzonitrile], the EC50 at APOL1 G2 [1] is 276 nM. For the same compound, the AC50 on APOL1 G2 [2] stood at 210 nM.

Turning to `C[C@@H]1CN(CC(CO)c2cc(Cl)cc(C#N)c2)C[C@H]1COc1ccc(S(C)(=O)=O)cc1` (single isomer, unassigned) [Compound 127, 3-chloro-5-[(2R or 2S)-1-hydroxy-3-[(3S,4S)-3-[(4-methanesulfonylphenoxy)methyl]-4-methylpyrrolidin-1-yl]propan-2-yl]benzonitrile], the EC50 at APOL1 G2 [1] was above 10000 nM. In addition, on APOL1 G2 [2], the AC50 was 2220 nM.

Take `C[C@@H]1CN(CC(O)c2cccc(C#N)c2)C[C@H]1COc1ccc(S(C)(=O)=O)nc1` (stereo partly drawn) [Compound 104, 3-{1-hydroxy-2-[(3S,4S)-3-{[(6-methanesulfonylpyridin-3-yl)oxy]methyl}-4-methylpyrrolidin-1-yl]ethyl}benzonitrile]: the EC50 on APOL1 G2 [1] amounted to 1010 nM. Further, the AC50 at APOL1 G2 [2] was determined as 700 nM.

Take `C[C@@H]1CN(C(CO)Cc2cccc(Cl)c2)C[C@H]1COc1ccc(S(C)(=O)=O)cc1` (single isomer, unassigned) [Compound 116, (2R or 2S)-3-(3-chlorophenyl)-2-[(3S,4S)-3-[(4-methanesulfonylphenoxy)methyl]-4-methylpyrrolidin-1-yl]propan-1-ol]: the EC50 at APOL1 G2 [1] was above 10000 nM. On APOL1 G2 [2], the AC50 came to 1700 nM.

For `C[C@@H]1C[C@H](COc2ccc(S(C)(=O)=O)nc2)CN1CC(O)c1cccc(C#N)c1` (single isomer, unassigned) [Compound 94, 3-[(1S or 1R)-1-hydroxy-2-[(2R,4S)-4-{[(6-methanesulfonylpyridin-3-yl)oxy]methyl}-2-methylpyrrolidin-1-yl]ethyl]benzonitrile], at APOL1 G2 [1], the EC50 turned out to be 103 nM. In addition, the AC50 at APOL1 G2 [2] is 614 nM.

In the case of `C[C@@H]1C[C@H](COc2ccc(S(=O)(=O)CCCS(C)(=O)=O)cc2)CN1C1CCc2c(C#N)cccc2C1` (single isomer, unassigned) [Compound 41, (6S or 6R)-6-[(2R,4S)-4-{[4-(3-methanesulfonylpropanesulfonyl)phenoxy]methyl}-2-methylpyrrolidin-1-yl]-5,6,7,8-tetrahydronaphthalene-1-carbonitrile], at APOL1 G2 [1], the EC50 amounted to 62.8 nM. On APOL1 G2 [2], the AC50 turned out to be 1180 nM.

Regarding `Cc1cc(OC[C@@H]2CN(CCc3cc(Cl)cc(C#N)c3)C[C@H]2C)ccc1S(C)(=O)=O` [Compound 84, 3-chloro-5-{2-[(3S,4S)-3-[(4-methanesulfonyl-3-methylphenoxy)methyl]-4-methylpyrrolidin-1-yl]ethyl}benzonitrile], the EC50 on APOL1 G2 [1] is 28.6 nM. Also, the AC50 on APOL1 G2 [2] is 182 nM.

Turning to `C[C@@H]1CN(CCc2cc(Cl)cc(C#N)c2)C[C@H]1COc1ccc(S(C)(=O)=O)nc1` [Compound 85, 3-chloro-5-{2-[(3S,4S)-3-{[(6-methanesulfonylpyridin-3-yl)oxy]methyl}-4-methylpyrrolidin-1-yl]ethyl}benzonitrile], the EC50 at APOL1 G2 [1] amounted to 186 nM. In addition, on APOL1 G2 [2], the AC50 turned out to be 221 nM.

For `C[C@@H]1C[C@H](COc2ccc(S(C)(=O)=O)cc2)CN1C1CCc2ccc(C#N)cc2C1` (single isomer, unassigned) [Compound 136, (7S or 7R)-7-[(2R,4S)-4-[(4-methanesulfonylphenoxy)methyl]-2-methylpyrrolidin-1-yl]-5,6,7,8-tetrahydronaphthalene-2-carbonitrile], the EC50 on APOL1 G2 [1] was found to be 704 nM. On APOL1 G2 [2], the AC50 came to 707 nM.

As to `C[C@@H]1CN(C(CO)Cc2cc(Cl)cc(C#N)c2)C[C@H]1COc1ccc(S(C)(=O)=O)cc1` (stereo partly drawn) [Compound 120, 3-chloro-5-[3-hydroxy-2-[(3S,4S)-3-[(4-methanesulfonylphenoxy)methyl]-4-methylpyrrolidin-1-yl]propyl]benzonitrile], at APOL1 G2 [1], the EC50 stood at 1040 nM. Besides, the AC50 at APOL1 G2 [2] was 480 nM.

Consider `CC(C(O)c1cc(Cl)cc(C#N)c1)N1C[C@@H](COc2ccc(S(C)(=O)=O)cc2)C[C@H]1C` (single isomer, unassigned) [Compound 99, 3-chloro-5-[(1S,2R or 1R,2S or 1S,2S or 1R,2R)-1-hydroxy-2-[(2R,4S)-4-[(4-methanesulfonylphenoxy)methyl]-2-methylpyrrolidin-1-yl]propyl]benzonitrile], for which the EC50 at APOL1 G2 [1] turned out to be 252 nM. Moreover, the AC50 on APOL1 G2 [2] was determined as 1690 nM.

Consider `C[C@@H]1C[C@H](COc2ccc(S(C)(=O)=O)cc2)CN1C1CCc2ccc(C#N)cc2C1` (single isomer, unassigned) [Compound 137, (7R or 7S)-7-[(2R,4S)-4-[(4-methanesulfonylphenoxy)methyl]-2-methylpyrrolidin-1-yl]-5,6,7,8-tetrahydronaphthalene-2-carbonitrile], for which the EC50 on APOL1 G2 [1] turned out to be 35.8 nM. Besides, at APOL1 G2 [2], the AC50 was 222 nM.

As for `C[C@@H]1CN(CC(CO)c2cc(Cl)cc(C#N)c2)C[C@H]1COc1ccc(S(C)(=O)=O)cc1` (stereo partly drawn) [Compound 126, 3-chloro-5-(1-hydroxy-3-((3S,4S)-3-methyl-4-((4-(methylsulfonyl)phenoxy)methyl)pyrrolidin-1-yl)propan-2-yl)benzonitrile], at APOL1 G2 [1], the EC50 turned out to be 2760 nM. Also, at APOL1 G2 [2], the AC50 was determined as 1740 nM.

`C[C@@H]1C[C@H](COc2ccc(S(C)(=O)=O)cn2)CN1CCc1cc(Cl)cc(C#N)c1` [Compound 12, 3-chloro-5-{2-[(2R,4S)-4-{[(5-methanesulfonylpyridin-2-yl)oxy]methyl}-2-methylpyrrolidin-1-yl]ethyl}benzonitrile]: the EC50 on APOL1 G2 [1] was determined as 99.2 nM. The AC50 at APOL1 G2 [2] worked out at 279 nM.

In the case of `CC(C(O)c1cc(Cl)cc(C#N)c1)N1C[C@@H](COc2ccc(S(C)(=O)=O)cc2)C[C@H]1C` (single isomer, unassigned) [Compound 98, 3-chloro-5-[(1R,2S or 1S,2R or 1S,2S or 1R,2R)-1-hydroxy-2-[(2R,4S)-4-[(4-methanesulfonylphenoxy)methyl]-2-methylpyrrolidin-1-yl]propyl]benzonitrile], the EC50 at APOL1 G2 [1] is above 10000 nM. Besides, the half-maximal activity concentration (AC50) at APOL1 G2 [2] worked out at 2840 nM.

Regarding `C[C@@H]1CN(CCc2cccc(C#N)c2)C[C@H]1COc1ccc(S(C)(=O)=NCCS(C)(=O)=O)cc1` (single isomer, unassigned) [Compound 70], the EC50 on APOL1 G2 [1] is 342 nM. For the same compound, at APOL1 G2 [2], the AC50 amounted to 236 nM.
